Measurements reported in US12616203B2, “Use of 3-isoxazolidinones compounds as selective herbicides” (FMC Corporation, priority 2014, dated 2026).
“Also recorded” adds a separate entry of the source.

What was measured:
[1] = tested on: yellow nutsedge (YN); test: PRE greenhouse, 2,4-DC + sulfentrazone, % control; assay type: in vivo, Cyperus esculentus; conditions: 28 DAT, g ai/ha by row: r8-16 2,4-DC 50/100/200 (3 rows each) + sulfentrazone 105/210/315 (cycling)
Procedure: Test compositions containing 2,4-DC Example 1B and sulfentrazone (Spartan® 4F, 39.6% active ingredient, FMC Corp.) and mixtures of 2-(2,4-dichlorophenyl)methyl-4,4-dimethyl-3-isoxazolidinone and sulfentrazone, were diluted with water to provide the appropriate test rate concentration.
The test weeds were Pennsylvania smartweed (PS) (Polygonum pennsylvanicum), Palmer amaranth (PA) (Amaranthus palmeri), velvetleaf (VL) (Abutilon theophrasti), green foxtail (GF) (Setaria viridis), morningglory (MG) (Ipomoea spp.), yellow nutsedge (YN) (Cyperus esculentus), purple nutsedge (PN) (Cyperus rotundus), and benghal dayflower (BD) (Commelina benghalensis). Crops included in the evaluation were corn, wheat, and cowpea.
For pre-emergence testing, four disposable fiber flats (6″ by 10″) for each rate of application of each herbicide solution were filled with top soil, to which seeds of each species were planted in furrows made by a template pressed on the top of the soil. The furrows with crop/weed seeds were covered with soil and were watered well before application of the test compounds. Flats designated for treatment were placed in a spray chamber having a static platform and a movable sprayer and height of the spray nozzle was 10.5 inches above the soil level. Once the sprayer was calibrated using water for spray volume of 30 gallons per acre, flats were sprayed with sprayer at a speed to receive a coverage equivalent of 30 gallons per acre.
The application rates are those shown in Table 3, 3A, an d 3B below for the individual herbicidal solutions and the herbicide compositions of the present invention. The pre-emergence flats were immediately placed in the greenhouse and watered lightly after treatment for herbicide activation. Thereafter they were regularly watered and feterilized for the duration of the test. The control of weeds was evaluated in each experimental test at 28 days after treatment (DAT), 14 DAT for crops. The results, shown as an average of the replications, were compared with results observed in untreated control flats in the same tests. Percent weed control was determined by a method similar to the 0 to 100 rating system disclosed in “Research Methods in Weed Science,” 2nd ed., B. Truelove, Ed.; Southern Weed Science Society; Auburn University, Auburn, Ala., 1977.

[2] = tested on: Common lambsquarters; test: Ex13 PRE 2,4-DC + diflufenican, % control 28 DAT, Colby; assay type: in vivo, Chenopodium album
Description: Pyroxasulfone (KIH-485, 85%) at 74.3 g ai/ha, pendimethalin (Prowl 3.3EC, 37.4%) at 1200 g ai/ha, or a premix of chlorsulfuron plus metsulfuron-methyl (Report Extra, 75%) at 15.8 g ai/ha were applied as commercial standards. […] Treatments were replicated 3 times and flats were watered after planting before the treatment and lightly watered after treatment application. Thereafter flats were watered and fertilized routinely.

[3] = tested on: Cheat; test: Ex18 PRE 2,4-DC + clomazone, % control 28 DAT, Colby; assay type: in vivo, Bromus secalinus
Description: Additional treatments included application of metazachlor (Butisan®, 43.1%) at 750 g ai/ha, napropamide (Devrinol DF®, 50%) at 1260 g ai/ha, and dimethachlor (Teridox®, 48%) at 1000 g ai/ha. […] Treatments were applied just after the seeding of annual bluegrass, cheat, wild oat, quackgrass, field violet, blackgrass, littleseed canarygrass, silky windgrass, yellow foxtail, and goosegrass. […] Flats were watered and fertilized routinely after treatment application. Each treatment was replicated three times.

[4] = tested on: Quackgrass; test: Ex32 PRE 2,4-DC + pyroxasulfone + sulfentrazone, % control 28 DAT, Colby; assay type: in vivo, Elymus repens
Description: Treatments were applied at the time of planting to Italian ryegrass, green foxtail, littleseed canarygrass, wild oat, quackgrass, dandelion, common chickweed, white clover, yellow nutsedge, redroot pigweed, field bindweed, canola, and wheat. […] Flats were watered and fertilized routinely after treatment application.

[5] = tested on: Italian ryegrass; test: Ex36 POST 2,4-DC + metsulfuron-methyl, % control 28 DAT, Colby; assay type: in vivo, Lolium perenne L. ssp. multiflorum
Description: (§1) Crops screened were wheat and barley.

[6] = tested on: Sorghum; test: Ex46 PRE sorghum injury 7, 14, 21, 28 DAT; conditions: rate in the words
Procedure: Treatments were applied to sorghum at the time of planting using Pennington soil. Each treatment was replicated four times. Soil was watered before and after application for herbicide activation. Plants were watered and fertilized routinely. […] Visual percent crop injury was recorded at 7, 14, 21, and 28 days after treatment using a scale of 0 (no injury) to 100 (complete plant death).

[7] = tested on: weeds; test: Ex20 PRE greenhouse; assay type: in vivo; conditions: weed and rate in the words
Description: Herbicides: • 2,4 DC-21 (36.7% CS): 125, 170, 210, or 250 g ai/ha alone and as tank-mix with dimethenamid-P • Dimethanamid-P (Outlook, 63.9%): 250, 375, 500 g ai/ha in combination with 2,4 DC and alone, additional treatment alone at 750 g ai/ha. • Metazachlor (Butisan 43.1%): 500 g ai/ha
Herbicides included as standards for comparison were metazachlor plus dimethenamid-P (500 g) as tank mix combination. […] Treatments were replicated 3 times. […] Thereafter flats were watered and fertilized routinely.

[8] = tested on: weeds; Wheat and Barley; test: Ex36 POST greenhouse; assay type: in vivo; conditions: rate in the words
Description: as §1

[9] = tested on: weeds; corn, sweet corn, and sorghum; test: Ex37 PRE greenhouse; assay type: in vivo; conditions: weed and rate in the words
Description: S-metolachlor (DUAL II MAGNUM®, 82.4%) at 525 g ai/h plus atrazine at 560 g ai/h was included as a standard for comparison. […] Thereafter flats were watered and fertilized routinely.

With `CC1(C)CON(Cc2ccc(Cl)cc2Cl)C1=O` [2,4-DC, 2-(2,4-dichlorophenyl)methyl-4,4-dimethyl-3-isoxazolidinone] the “% Control YN” value ([1]; r17-19 2,4-DC 50/100/200, r20-22 sulfentrazone 105/210/315, 50 g ai/ha) was 10%, the “% Control YN” value ([1]; r17-19 2,4-DC 50/100/200, r20-22 sulfentrazone 105/210/315, 100 g ai/ha) was 12% and the “% Control YN” value ([1]; r17-19 2,4-DC 50/100/200, r20-22 sulfentrazone 105/210/315, 200 g ai/ha) was 13%. It also gave an X ([2]; 2,4-DC alone 125 g ai/ha) of 15%, an X ([2]; 2,4-DC alone 170 g ai/ha) of 26% and an X ([2]; 2,4-DC alone 210 g ai/ha) of 58%. For the same compound, the X ([2]; 2,4-DC alone 250 g ai/ha) was 60%, the X ([3]; 2,4-DC alone 125 g ai/ha) was 6% and the X ([3]; 2,4-DC alone 170 g ai/ha) was 11%. It also gave an X ([3]; 2,4-DC alone 210 g ai/ha) of 12%, an X ([3]; 2,4-DC alone 250 g ai/ha) of 25% and an X ([4]; 2,4-DC alone 50 g ai/ha) of 0%. The X ([4]; 2,4-DC alone 100 g ai/ha) was 7%, the X ([4]; 2,4-DC alone 200 g ai/ha) was 10% and the X ([5]; 2,4-DC alone 50 g ai/ha) was 22%. For the same compound, the X ([5]; 2,4-DC alone 100 g ai/ha) was 18%, the X ([5]; 2,4-DC alone 200 g ai/ha) was 29% and the “sorghum safety in words” value [6] was “safe on sorghum at rates ranging from 31 to 125 g ai/ha irrespective of rating timings”. For the same compound, the “weed control in words” value [7] was “applied alone at 125 g ai/ha controlled (≥85% injury) Canada thistle, giant foxtail, goosegrass, and common chickweed”, the “weed control / crop safety in words” value [8] was “alone applied to barley was safe at 50 g ai/ha” and the “weed control in words” value [9] was “applied alone at ≥50 g ai/ha controlled barnyardgrass 28 DAT; also recorded: applied alone at ≥200 g controlled velvetleaf and redroot pigweed”.
